Peptide text beside a SMILES is read from it.
How the values were obtained:
bovine brain calmodulin [1] = target: T1, bovine brain calmodulin (Bos taurus, UniProt P62157); assay: BIAcore surface plasmon resonance, kon and koff of calmodulin binding to biotinylated peptides; settings: for koff / kon: BIAcore; for koff: read-out: koff (s^-1)^B; for kon: read-out: kon (s^-1 M^-1)^B
T1 construct: Complexes between calmodulin from bovine brain (1 μM, Sigma); purchased Sigma; host or cells: bovine brain (tissue-derived)
Source text: (§1) For a kinetic and thermodynamic characterisation of the binding of the peptides of the present invention to bovine brain calmodulin, we have measured the kinetic isomerisation, association, and dissociation constants from which dissociation constants can be derived.
koff =k-1·k-2 /(k+2 +k-2)
(§2) Real-time interaction analysis by surface plasmon resonance on a BIAcore instrument (Jonsson et al., 1991) was used to determine kon and koff constants. Biotinylated peptides 1-17 were bound to commercially available streptavidin-coated microsensor chips (Pharmacia Biosensor), in order to achieve a surface capacity of 100-200 surface plasmon resonance units of calmodulin bound. Different concentrations of calmodulin (5, 10, 20, 50 and 100 nM in the order of FIG. 2) were injected and allowed to associate with the peptides. Regeneration of the surface was achieved by injection of 5 μl TBS+[…] which dissociates the calmodulin-peptide complex.

bovine brain calmodulin [2] = target: T1, bovine brain calmodulin; assay: stopped-flow measurement of kisom of calmodulin-binding peptides; settings: changes in tryptophan fluorescence
Source text: It has been shown by Torok and Trentham (1994) that smooth muscle MLCK-derived peptides bind to calmodulin with a biphasic kinetic according to the scheme: [drawing 1]
in which P is the peptide, C is calmodulin, P-C is the first complex formed on association of P and C, which then undergoes a conformational isomerisation to P-C*.
as §1
kisom constants have been measured by stopped-flow, detecting changes in tryptophan fluorescence for all the peptides except 3 (SEQ ID NO:4), in which the tryptophan is replaced by alanine.

calmodulin [3] = target: T2, calmodulin (Bos taurus, UniProt P62157); assay: koff by competition experiments, native PAGE of fluorescein-labelled peptide/calmodulin complexes; assay type: binding, bovine; parameters: Complexes between calmodulin from bovine brain (1 μM, Sigma); purchased Sigma; host or cells: bovine brain (tissue-derived); settings: competition with 30-fold excess unlabelled peptide, room temperature, gel buffer; read-out: koff (s^-1)^C
Experimental: Complexes between calmodulin from bovine brain (1 μM, Sigma) and fluorescein-labelled sMLCK-derived peptides (as described in Table 1 (SEQ ID NOS:2-18)) were prepared in gel buffer (25% gel mix [4 g sucrose+1 mg bromophenol blue in water to give a 10 ml solution]+75% TBSC [50 mM TRIS pH 7.4, […]+50 μM CaCl2)] and run on a 15% native PAGE gel (5 ml 30% acrylamide-bisacrylamide solution+4.5 ml water+0.5 ml 3M Tris, pH 8.8, +1 μl 1M CaCl2 polymerised with 30 μl 25% ammonium persulphate and 9 μl TEMED) using 14.4 g/l glycine+3 g/l Tris-base+0.1 mM CaCl2 as running buffer. Peptides were labelled either with iodoacetamido fluorescein (Molecular Probes) or with iodoacetamido-LC-biotin (Pierce) essentially as previously described by Neri et al., (1995). In these conditions, the fluorescence of the positively-charged labelled peptides can be detected only if they form a stable complex with calmodulin.
(§3) In order to obtain an independent experimental confirmation if the BIAcore results, koff constants for peptides 1-17 towards calmodulin were determined by competition experiments. 30 nM fluorescein-labelled peptide/calmodulin complexes in gel buffer were competed at room temperature for different times with 30-fold excess of unlabelled peptide. The resulting mixtures were run on native PAGE gels and imaged by LUANA as described above. The bands in the image obtained were integrated using the LUANA software (Neri et al., 1996) and the corresponding intersities plotted versus time and fitted with a single exponential, from which koff constants were derived. In order to normalise band intensities against pipetting errors, the samples contained 6 nM free fluorescein which ran with the front. The fluorescein bands were integrated and used to normalise the calmodulin/fluorescent peptide complex band intensity. The results of competitions for peptides 1, 2, 3, 6, 9, and 14 are shown in this FIG. 3. Incubation time in minutes is indicated under the lanes.
The volumes of the bands were plotted versus competition time and fitted to a single exponential, from which koff values were derived.
The fastest competitions (peptides 1-4, 9 and 13, SEQ ID NOS:2-5,10, and 14) were over by the time the calmodulin/fluorescent peptide complex entered the gel (approximately 5-10 minutes from pipetting a molar excess of unlabelled peptide; FIG. 3), from which a condition on the off-rate constant koff >1×10^-3 s^-1 was derived. Even for these fast off-rates, complexes can be detected by native polyacrylamide gel electrophoresis because of the well known gel "cage effect" (Fried and Crothers, 1981; Garner and Revzin, 1981).

calmodulin [4] = target: T2, calmodulin; assay: kinetic analysis of N9 replacement peptides and multiple mutant by the methods of Examples 3 and 4; assay type: binding
Experimental: as §2, with “Biotinylated peptides 1-17 were bound to commercially available streptavidin-coated microsensor chips (Pharmacia Biosensor), in order to achieve a surface capacity of 100-200 surface plasmon resonance units of calmodulin bound.” left out
as §3, with “30” for “In order to obtain an independent experimental confirmation if the BIAcore results, koff constants for peptides 1-17 towards calmodulin were determined by competition experiments. 30”, “The results of competitions for peptides 1, 2, 3, 6, 9, and 14 are shown in this FIG. 3.” left out
Hydrophobic donor residues (valine, phenylalanine and leucine) were chosen because it was hypothesized that these residues would contribute to the stability of the hydrophobic environment in the calmodulin core.

| Structure (SMILES) | koff (bovine brain calmodulin [1]) [s⁻¹] | kon (bovine brain calmodulin [1]) [M⁻¹ s⁻¹] | kisom. (s^-1)^A (bovine brain calmodulin [2]) | koff (calmodulin [3]) [s⁻¹] | koff (calmodulin [4]; Table II, N9 replacement) [s⁻¹] | kon (calmodulin [4]; Table II, N9 replacement) [M⁻¹ s⁻¹] | other results |
| --- | --- | --- | --- | --- | --- | --- | --- |
| CC[C@H](C)[C@H](NC(=O)[C@H](C)NC(=O)[C@H](CCCCN)NC(=O)[C@H](Cc1ccccc1)NC(=O)[C@H](CCCNC(=N)N)NC(=O)[C@H](CC(N)=O)NC(=O)[C@H](C)NC(=O)[C@H](C)NC(=O)[C@H](CO)NC(=O)[C@@H](NC(=O)[C@H](C)NC(=O)[C@@H](NC(=O)[C@H](Cc1ccccc1)NC(=O)[C@H](CC(N)=O)NC(=O)[C@H](CCCCN)NC(=O)[C@H](CCCCN)NC(=O)[C@H](Cc1c[nH]c2ccccc12)NC(=O)[C@H](CCCNC(=N)N)NC(=O)[C@H](C)NC(=O)[C@H](C)NC(=O)[C@H](C)NC(=O)[C@@H](N)CS)[C@@H](C)CC)C(C)C)C(=O)N[C@@H](CO)C(N)=O [Peptide 15] (H-CAAARWKKNFIAVSAANRFKAIS-NH2; N-terminus assumed) | 0.00022 | 1.1e+06 | 1.2 (10.3) × 10^-1 s^-1 | 0.00021 |  |  |  |
| CC[C@H](C)[C@H](NC(=O)[C@H](Cc1ccccc1)NC(=O)[C@H](CC(N)=O)NC(=O)[C@H](CCCCN)NC(=O)[C@H](CCCCN)NC(=O)[C@H](Cc1c[nH]c2ccccc12)NC(=O)[C@H](CCCNC(=N)N)NC(=O)[C@H](C)NC(=O)[C@H](C)NC(=O)[C@H](C)NC(=O)[C@@H](N)CS)C(=O)N[C@@H](C)C(=O)N[C@H](C(=O)N[C@@H](CO)C(=O)N[C@@H](C)C(=O)N[C@@H](C)C(=O)N[C@@H](CC(N)=O)C(=O)N[C@@H](CCCNC(=N)N)C(=O)N[C@@H](Cc1ccccc1)C(=O)N[C@@H](CCCCN)C(=O)N[C@@H](CCCCN)C(=O)N[C@@H](C)C(=O)N[C@@H](CO)C(N)=O)C(C)C [Peptide 16] (H-CAAARWKKNFIAVSAANRFKKAS-NH2; N-terminus assumed) | 0.00031 | 810000 | 8.7 (11.5) × 10^-2 s^-1 | 0.00028 |  |  |  |
| CC[C@H](C)[C@H](NC(=O)[C@H](CCCCN)NC(=O)[C@H](CCCCN)NC(=O)[C@H](Cc1ccccc1)NC(=O)[C@H](CCCNC(=N)N)NC(=O)[C@H](CC(N)=O)NC(=O)[C@H](C)NC(=O)[C@H](C)NC(=O)[C@H](CO)NC(=O)[C@@H](NC(=O)[C@H](C)NC(=O)[C@@H](NC(=O)[C@H](Cc1ccccc1)NC(=O)[C@H](CC(N)=O)NC(=O)[C@H](CCCCN)NC(=O)[C@H](CCCCN)NC(=O)[C@H](Cc1c[nH]c2ccccc12)NC(=O)[C@H](CCCNC(=N)N)NC(=O)[C@H](C)NC(=O)[C@H](C)NC(=O)[C@H](C)NC(=O)[C@@H](N)CS)[C@@H](C)CC)C(C)C)C(=O)N[C@@H](C)C(N)=O [Peptide 17] (H-CAAARWKKNFIAVSAANRFKKIA-NH2; N-terminus assumed) | 0.00013 | 820000 | 1.3 (10.4) × 10^-1 s^-1 | 7e-05 |  |  | improvement of koff with respect to wild type, in words (bovine brain calmodulin [1]): largest improvements; improvement in Kd / affinity for calmodulin over the wild type peptide, in words (bovine brain calmodulin [1]; Table 1): greatest improvement in Kd |
| CC[C@H](C)[C@H](NC(=O)[C@H](CCCCN)NC(=O)[C@H](C)NC(=O)[C@H](Cc1ccccc1)NC(=O)[C@H](CCCNC(=N)N)NC(=O)[C@H](CC(N)=O)NC(=O)[C@H](C)NC(=O)[C@H](C)NC(=O)[C@H](C)NC(=O)[C@@H](NC(=O)[C@H](C)NC(=O)[C@@H](NC(=O)[C@H](Cc1ccccc1)NC(=O)[C@H](C)NC(=O)[C@H](CCCCN)NC(=O)[C@H](CCCCN)NC(=O)[C@H](Cc1c[nH]c2ccccc12)NC(=O)[C@H](CCCNC(=N)N)NC(=O)[C@H](C)NC(=O)[C@H](C)NC(=O)[C@H](C)NC(=O)[C@@H](N)CS)[C@@H](C)CC)C(C)C)C(=O)N[C@@H](C)C(N)=O [SEQ ID NO:19] (H-CAAARWKKAFIAVAAANRFAKIA-NH2; N-terminus and C-terminus assumed) |  |  |  |  |  |  | affinity for calmodulin compared with other peptides, in words (calmodulin [4]): comparable to that of peptide 6; koff (calmodulin [4]; multiple mutant): 5.9e-06 s⁻¹; kon (calmodulin [4]; multiple mutant): 610000 M⁻¹ s⁻¹ |
| CC[C@H](C)[C@H](NC(=O)[C@H](Cc1ccccc1)NC(=O)[C@@H](NC(=O)[C@H](CCCCN)NC(=O)[C@H](CCCCN)NC(=O)[C@H](Cc1c[nH]c2ccccc12)NC(=O)[C@H](CCCNC(=N)N)NC(=O)[C@H](C)NC(=O)[C@H](C)NC(=O)[C@H](C)NC(=O)[C@@H](N)CS)C(C)C)C(=O)N[C@@H](C)C(=O)N[C@H](C(=O)N[C@@H](CO)C(=O)N[C@@H](C)C(=O)N[C@@H](C)C(=O)N[C@@H](CC(N)=O)C(=O)N[C@@H](CCCNC(=N)N)C(=O)N[C@@H](Cc1ccccc1)C(=O)N[C@@H](CCCCN)C(=O)N[C@@H](CCCCN)C(=O)N[C@H](C(=O)N[C@@H](CO)C(N)=O)[C@@H](C)CC)C(C)C [a] (H-CAAARWKKVFIAVSAANRFKKIS-NH2; N-terminus and C-terminus assumed) |  |  |  |  | 0.00035 | 850000 |  |
| CC[C@H](C)[C@H](NC(=O)[C@H](Cc1ccccc1)NC(=O)[C@H](Cc1ccccc1)NC(=O)[C@H](CCCCN)NC(=O)[C@H](CCCCN)NC(=O)[C@H](Cc1c[nH]c2ccccc12)NC(=O)[C@H](CCCNC(=N)N)NC(=O)[C@H](C)NC(=O)[C@H](C)NC(=O)[C@H](C)NC(=O)[C@@H](N)CS)C(=O)N[C@@H](C)C(=O)N[C@H](C(=O)N[C@@H](CO)C(=O)N[C@@H](C)C(=O)N[C@@H](C)C(=O)N[C@@H](CC(N)=O)C(=O)N[C@@H](CCCNC(=N)N)C(=O)N[C@@H](Cc1ccccc1)C(=O)N[C@@H](CCCCN)C(=O)N[C@@H](CCCCN)C(=O)N[C@H](C(=O)N[C@@H](CO)C(N)=O)[C@@H](C)CC)C(C)C [b] (H-CAAARWKKFFIAVSAANRFKKIS-NH2; N-terminus and C-terminus assumed) |  |  |  |  | 2.9e-05 | 290000 |  |
| CC[C@H](C)[C@H](NC(=O)[C@H](Cc1ccccc1)NC(=O)[C@H](CC(C)C)NC(=O)[C@H](CCCCN)NC(=O)[C@H](CCCCN)NC(=O)[C@H](Cc1c[nH]c2ccccc12)NC(=O)[C@H](CCCNC(=N)N)NC(=O)[C@H](C)NC(=O)[C@H](C)NC(=O)[C@H](C)NC(=O)[C@@H](N)CS)C(=O)N[C@@H](C)C(=O)N[C@H](C(=O)N[C@@H](CO)C(=O)N[C@@H](C)C(=O)N[C@@H](C)C(=O)N[C@@H](CC(N)=O)C(=O)N[C@@H](CCCNC(=N)N)C(=O)N[C@@H](Cc1ccccc1)C(=O)N[C@@H](CCCCN)C(=O)N[C@@H](CCCCN)C(=O)N[C@H](C(=O)N[C@@H](CO)C(N)=O)[C@@H](C)CC)C(C)C [c] (H-CAAARWKKLFIAVSAANRFKKIS-NH2; N-terminus and C-terminus assumed) |  |  |  |  | 2.3e-05 | 1.1e+06 |  |

From patent publication US6316409A, “Modified ligands of calcium-dependent binding proteins” (Medical Research Council, priority 1996, dated 2001)
